Results on one compound are retold here after ChEMBL document CHEMBL1145337, “Antitumor agents. 5. synthesis, structure-activity relationships, and biological evaluation of dimethyl-5H-pyridophenoxazin-5-ones, tetrahydro-5h-benzopyridophenoxazin-5-ones, and 5h-benzopyridophenoxazin-5-ones with potent antiproliferative activity” (J Med Chem, 2006).

One may read the pIC50 as −log10 of the IC50, conventionally taken in molar units.

Assay [1] deals with HeLa. Nature of the assay: Antiproliferative activity against human HeLa cells by MTT assay. It is filed as functional, cell-based. A general note: Tetrazolium dyes change colour on reduction, which living cells bring about.
For assay [2], the system named is HT-29. Nature of the assay: Cell cycle arrest in HT29 cells by accumulation at G2/M phase by flow cytometry at […]. It is filed as functional, Homo sapiens. Background: A flow cytometer gives signals particle by particle.
For assay [3], the system named is HT-29. Nature of the assay: Cell cycle arrest in HT29 cells by accumulation at S phase by flow cytometry at […]. It counts as functional, Homo sapiens.
For assay [4], the system named is HEp-2. Nature of the assay: Antiproliferative activity against human Hep2 cell line by MTT assay. It counts as functional, cell-based.
The subject of assay [5] is HT-29. Description: Cell cycle arrest in HT29 cells by accumulation at G0/G1 phase by flow cytometry at […]. It counts as functional, Homo sapiens.
In assay [6] the test system is KB. Nature of the assay: Antiproliferative activity against human KB cell line by MTT assay. It is filed as functional, cell-based.
The test system of assay [7] is C8166. Nature of the assay: Antiproliferative activity against human C8166 cell line by MTT assay. It is filed as functional, cell-based.
For assay [8], the system named is CCRF-SB. Nature of the assay: Antiproliferative activity against human CCRF-SB cell line by MTT assay. It counts as functional, cell-based.
Assay [9] relates to WIL2-NS. Nature of the assay: Antiproliferative activity against human Wil2-NS cells by MTT assay. It is filed as functional, cell-based.
The test system of assay [10] is MOLT-4. Nature of the assay: Antiproliferative activity against human MOLT4 cell line by MTT assay. It counts as functional, cell-based.
Assay [11] relates to 5637. Nature of the assay: Antiproliferative activity against human 5637 cell line by MTT assay. It counts as functional, cell-based.
The test system of assay [12] is HT-29. Description: Antiproliferative activity against human HT29 cell line by MTT assay. It counts as functional, cell-based.
The target in assay [13] is DNA topoisomerase II (Homo sapiens) (UniProt P11388+Q02880). Nature of the assay: Promotion of human topoisomerase 2-mediated DNA cleavage. It counts as protein assay.
The target in assay [14] is T1, DNA topoisomerase 1 (Homo sapiens) (UniProt P11387).
T1 sequence (whole entry): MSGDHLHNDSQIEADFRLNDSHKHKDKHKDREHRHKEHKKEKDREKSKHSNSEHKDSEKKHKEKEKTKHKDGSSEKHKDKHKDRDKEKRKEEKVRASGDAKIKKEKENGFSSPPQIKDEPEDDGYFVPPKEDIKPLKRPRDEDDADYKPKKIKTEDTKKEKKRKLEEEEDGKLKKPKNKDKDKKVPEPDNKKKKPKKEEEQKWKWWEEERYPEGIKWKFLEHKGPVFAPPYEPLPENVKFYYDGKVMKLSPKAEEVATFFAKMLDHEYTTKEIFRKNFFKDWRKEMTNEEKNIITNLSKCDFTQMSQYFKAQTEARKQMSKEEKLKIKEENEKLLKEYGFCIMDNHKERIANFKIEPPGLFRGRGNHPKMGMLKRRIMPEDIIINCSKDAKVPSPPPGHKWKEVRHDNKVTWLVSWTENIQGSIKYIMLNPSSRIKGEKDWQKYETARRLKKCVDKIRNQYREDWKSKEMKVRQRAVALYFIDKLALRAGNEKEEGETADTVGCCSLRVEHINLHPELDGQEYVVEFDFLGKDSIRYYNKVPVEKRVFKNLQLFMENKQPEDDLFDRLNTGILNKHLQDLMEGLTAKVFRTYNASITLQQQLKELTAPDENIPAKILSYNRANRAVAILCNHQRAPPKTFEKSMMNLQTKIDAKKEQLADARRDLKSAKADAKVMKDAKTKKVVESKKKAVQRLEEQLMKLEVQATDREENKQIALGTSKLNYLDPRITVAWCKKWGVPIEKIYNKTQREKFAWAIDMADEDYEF
Nature of the assay: Unwinding of DNA mediated by topoisomerase 1 at 20 uM.

The subject of assay [15] is MT4. Nature of the assay: Antiproliferative activity against human MT4 cell line by MTT assay. It counts as functional, cell-based.
The target in assay [16] is T1, DNA topoisomerase 1 (Homo sapiens). Description: Promotion of human topoisomerase 1-mediated DNA cleavage.
The subject of assay [17] is ACHN. Nature of the assay: Antiproliferative activity against human ACHN cell line by MTT assay. It is filed as functional, cell-based.
Assay [18] relates to CCRF-CEM. Nature of the assay: Antiproliferative activity against human CCRF-CEM cell line by MTT assay. It counts as functional, cell-based.
The subject of assay [19] is G-361. Nature of the assay: Antiproliferative activity against human G361 cell line by MTT assay. It counts as functional, cell-based.

pIC50: −log10 of the molar value. Activity calls are given as the source filed them. The calls are words filed in the database; no cut-off is given here.

`O=c1cc2oc3ccc4ccccc4c3nc-2c2cccnc12`: the pIC50 in assay [1] is 9.00; in assay [4], 7.40; in assay [6] it was 8.00; in assay [7], 9.00; in [8], 8.00; in assay [9] it was 8.30. Further, the negative logarithm of the IC50 (pIC50) in [10] was 7.40; in [11] it was 8.00; in assay [12] it was 8.70; in assay [15] it was 8.00; in assay [17], 8.00; in assay [18], 9.00. The same compound showed a pIC50 in assay [19] of 7.70. The Activity in [2] came out at 48.66%; in assay [3], 23.42%; in [5], 27.93%. For the same compound, the result in [13] and in [16] was inactive. Further, the outcome in assay [14] was Active.
